Counter-ions that a name gives are not always drawn. Like-named read-outs stand apart in the source and are kept apart here.
Biological target: T1, TAK1-TAB1 fusion protein (Homo sapiens, UniProt O43318)
T1 construct: purchased Carna
T1 sequence (O43318 with tags, fused parts or gaps limits assumed): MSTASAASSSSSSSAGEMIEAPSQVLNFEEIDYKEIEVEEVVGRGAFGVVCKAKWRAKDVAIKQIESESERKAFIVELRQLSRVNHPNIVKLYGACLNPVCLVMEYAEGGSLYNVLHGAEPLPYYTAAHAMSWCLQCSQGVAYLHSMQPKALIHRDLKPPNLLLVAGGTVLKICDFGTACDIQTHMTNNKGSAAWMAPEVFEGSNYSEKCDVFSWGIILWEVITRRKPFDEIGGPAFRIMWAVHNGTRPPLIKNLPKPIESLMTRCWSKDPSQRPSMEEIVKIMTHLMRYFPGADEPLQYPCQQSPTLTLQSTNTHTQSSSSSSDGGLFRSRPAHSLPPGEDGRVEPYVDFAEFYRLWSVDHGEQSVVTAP
Assay: TAK1 biochemical assay (AlphaScreen, GST-MAP2K7 substrate)

[1] = TAK1-TAB1 fusion protein, GST-MAP2K7 substrate, read-out: mean TAK1 IC50 (Col. A)

Compound | IC50 [1] | IC50
CC(=O)Nc1ccc(-c2cc3c(-c4cnn(C5CCN(C(C)=O)CC5)c4)cnc(N)c3o2)cn1 [Example 126, N-(5-{4-[1-(1-acetylpiperidin-4-yl)-1H-pyrazol-4-yl]-7-aminofuro[2,3-c]pyridin-2-yl}pyridin-2-yl)acetamide] | 1000 to 10000 nM | –
Cc1c(-c2cnc(N)c3oc(-c4csc5cnccc45)cc23)cnn1[C@@H]1C[C@@H](O)[C@@H](O)C1 [Example 312, rel-(1R,2S,4S)-4-[4-(7-amino-2-thieno[2,3-c]pyridin-3-yl-furo[2,3-c]pyridin-4-yl)-5-methyl-pyrazol-1-yl]-cyclopentane-1,2-diol] | 1000 to 10000 nM | –
CC(=O)N1CCC(n2cc(-c3cnc(N)c4oc(-c5ccc6c(c5)C(=O)NC6=O)cc34)cn2)CC1 [Example 100, 5-{4-[1-(1-acetylpiperidin-4-yl)-1H-pyrazol-4-yl]-7-aminofuro[2,3-c]pyridin-2-yl}-1H-isoindole-1,3(2H)-dione] | 1000 to 10000 nM | –
Nc1ncc(-c2cnn(C3CCNCC3)c2)c2cc(-c3cccc4c3oc3ccccc34)oc12 [Example 36, 2-(dibenzo[b,d]furan-4-yl)-4-[1-(piperidin-4-yl)-1H-pyrazol-4-yl]furo[2,3-c]pyridine-7-amine] | 100 to 1000 nM | –
Nc1ncc(-c2cnn(C3CCNCC3)c2)c2cc(C3CCNCC3)oc12 [Example 54, 2-(piperidin-4-yl)-4-[1-(piperidin-4-yl)-1H-pyrazol-4-yl]furo[2,3-c]pyridin-7-amine] | > 10000 nM | –
COc1cccc2cc(C=CC(=O)N3CCC(n4cc(-c5cnc(N)c6oc(-c7csc8cnccc78)cc56)cn4)CC3)oc12 [Example 333, 1-{4-[4-(7-amino-2-thieno[2,3-c]pyridin-3-yl-furo[2,3-c]pyridin-4-yl)-pyrazol-1-yl]-piperidin-1-yl}-3-(7-methoxy-benzo-furan-2-yl)-propenone] | 100 to 1000 nM | –
Nc1ncc(-c2cnn(C3CCN(C(=O)Nc4cccc(Cc5ccccc5)c4)CC3)c2)c2cc(-c3cccc4cnsc34)oc12 [Example 339, 4-[4-(7-amino-2-benzo[d]isothiazol-7-yl-furo[2,3-c]pyridin-4-yl)-pyrazol-1-yl]-piperidine-1-carboxylic acid (3-benzyl-phenyl)-amide] | 1000 to 10000 nM | –
Nc1ncc(-c2cnn(C3CCNCC3)c2)c2cc(-c3cc(F)cc(C(F)(F)F)c3)oc12 [Example 7, 2-[3-fluoro-5-(trifluoromethyl)phenyl]-4-[1-(piperidin-4-yl)-1H-pyrazol-4-yl]furo[2,3-c]pyridin-7-amine] | 1000 to 10000 nM | –
CC(=O)N1CCC(n2cc(-c3cnc(N)c4oc(-c5cccc(OC(C)C)c5)cc34)cn2)CC1 [Example 165, 1-[4-(4-{7-amino-2-[3-(propan-2-yloxy)phenyl]furo[2,3-c}pyridin-4-yl}-1H-pyrazol-1-yl)piperidin-1-yl}ethanone] | 1000 to 10000 nM | –
Nc1ncc(-c2cnn([C@H]3CC[C@H](O)CC3)c2)c2cc(-c3c(-c4ccccc4)sc4cnccc34)oc12 [Example 269, trans-4-{4-[7-amino-2-(2-phenylthieno[2,3-c]pyridin-3-yl)furo[2,3-c]pyridin-4-yl]-1H-pyrazol-1-yl}cyclohexanol trifluoroacetate] | 1000 to 10000 nM | –
Nc1ncc(-c2cc(C(=O)O)cs2)c2cc(-c3csc4cnccc34)oc12 [Example 379, 5-(7-amino-2-thieno[2,3-c]pyridin-3-yl-furo[2,3-c]pyridin-4-yl)-thiophene-3-carboxylic acid] | 1000 to 10000 nM | –
Cc1c(-c2cnc(N)c3oc(-c4csc5cnccc45)cc23)cnn1C [Example 292, 4-(1,5-dimethyl-1H-pyrazol-4-yl)-2-thieno[2,3-c]pyridin-3-yl-furo[2,3-c]pyridin-7-ylamine] | – | 1000 to 10000 nM
CC(=O)N1CCC(n2cc(-c3cnc(N)c4oc(-c5cccc(OC(F)(F)F)c5)cc34)cn2)CC1 [Example 163, 1-[4-(4-{7-amino-2-[3-(trifluoromethoxy)phenyl]furo[2,3-c]pyridin-4-yl}-1H-pyrazol-1-yl)piperidin-1-yl]ethanone] | 1000 to 10000 nM | –
CC(=O)N1CCC(n2cc(-c3cnc(N)c4oc(-c5cccc(OCc6cccc(Cl)c6)c5)cc34)cn2)CC1 [Example 201, 1-{4-[4-(7-amino-2-{3-[(3-chlorobenzyl)oxy]phenyl}furo[2,3-c]pyridin-4-yl)-1H-pyrazol-1-yl]piperidin-1-yl}ethanone] | > 10000 nM | –
CC(=O)N1CCC(n2cc(-c3cnc(N)c4oc(-c5ccccc5C(N)=O)cc34)cn2)CC1 [Example 172, 2-{4-[1-(1-acetylpiperidin-4-yl)-1H-pyrazol-4-yl]-7-aminofuro[2,3-c]pyridin-2-yl}benzamide] | 1000 to 10000 nM | –
CN(C)c1nc2cccc(-c3cc4c(-c5cnn([C@H]6CC[C@H](O)CC6)c5)cnc(N)c4o3)c2s1 [Example 371, trans-4-(4-{7-amino-2-[2-(dimethylamino)-1,3-benzothiazol-7-yl]furo[2,3-c]pyridin-4-yl}-1H-pyrazol-1-yl)cyclohexanol Trifluoroacetate (Salt)] | 1000 to 10000 nM | –

Compound | IC50 [1] | IC50
Nc1ncc(-c2cnn(CCO)c2)c2cc(-c3csc4cnccc34)oc12 [Example 319, 2-[4-(7-amino-2-thieno[2,3-d]pyridin-3-yl-furo[2,3-d]pyridin-4-yl)-pyrazol-1-yl]-ethanol] | 100 to 1000 nM | –
CC(=O)N1CCC(n2cc(-c3cnc(N)c4oc(-c5ccc(N)c(C)c5)cc34)cn2)CC1 [Example 140, 1-(4-{4-[7-amino-2-(4-amino-3-methylphenyl)furo[2,3-c]pyridin-4-yl]-1H-pyrazol-1-yl}piperidin-1-yl)ethanone] | 1000 to 10000 nM | –
CC(=O)N1CCC(n2cc(-c3cnc(N)c4oc(-c5cccc(OCc6ccncc6)c5)cc34)cn2)CC1 [Example 203, 1-[4-(4-{7-amino-2-[3-(pyridin-4-ylmethoxy)phenyl]furo[2,3-c]pyridin-4-yl}-1H-pyrazol-1-yl)piperidin-1-yl]ethanone] | 100 to 1000 nM | –
CC(=O)N1CCC(n2cc(-c3cnc(N)c4oc(-c5ccc(Oc6ccccc6)cc5)cc34)cn2)CC1 [Example 159, 1-(4-{4-[7-amino-2-(4-phenoxyphenyl)furo[2,3-c]pyridin-4-yl]-1H-pyrazol-1-yl}piperidin-1-yl)ethanone] | > 10000 nM | –
Nc1ncc(-c2cnn(C3CCNCC3)c2)c2cc(-c3ccoc3)oc12 [Example 21, 2-(furan-3-yl)-4-[1-(piperidin-4-yl)-1H-pyrazol-4-yl]furo[2,3-c]pyridine-7-amine] | 1000 to 10000 nM | –
Nc1ncc(-c2cnn(C3CCNCC3)c2)c2c(Cl)c(-c3ccccc3)oc12 [Example 12, 3-chloro-2-phenyl-4-[1-(piperidin-4-yl)-1H-pyrazol-4-yl]furo[2,3-c]pyridin-7-amine hydrochloride] | 100 to 1000 nM | –
CCCOc1cccc(-c2cc3c(-c4cnn(C5CCN(C(C)=O)CC5)c4)cnc(N)c3o2)c1 [Example 181, 1-(4-{4-[7-amino-2-(3-propoxyphenyl)furo[2,3-c]pyridin-4-yl]-1H-pyrazol-1-yl}piperidin-1-yl)ethanone] | > 10000 nM | –
Nc1ncc(-c2cnn(C3CCNCC3)c2)c2cc(-c3cccc4c3NC(=O)C4)oc12 [Example 44, 7-{7-amino-4-[1-(piperidin-4-yl)-1H-pyrazol-4-yl]furo[2,3-c]pyridine-2-yl}-1,3-dihydro-2H-indol-2-one] | 1000 to 10000 nM | –
N#Cc1cc(-c2cc3c(-c4cnn([C@H]5CC[C@H](O)CC5)c4)cnc(N)c3o2)ccc1N [Example 407, 2-amino-5-{7-amino-4-[1-(trans-4-hydroxycyclohexyl)-1H-pyrazol-4-yl]furo[2,3-c]pyridin-2-yl}benzonitrile] | 100 to 1000 nM | –
Cc1c(-c2cnc(N)c3oc(-c4csc5cnccc45)cc23)cnn1[C@H]1CC[C@H](O)CC1 [Example 305, 4-[4-(7-amino-2-thieno[2,3-c]pyridin-3-yl-furo[2,3-c]pyridin-4-yl)-5-methyl-pyrazol-1-yl]-cyclohexanol] | 1000 to 10000 nM | –
Cc1nc(C)c(-c2cnc(N)c3oc(-c4csc5cnccc45)cc23)s1 [Example 394, 4-(2,4-dimethyl-thiazol-5-yl)-2-thieno[2,3-c]pyridin-3-yl-furo[2,3-c]pyridin-7-ylamine] | 1000 to 10000 nM | –
Cn1cc(-c2cnc(N)c3oc(-c4csc5cnccc45)cc23)c(C#N)n1 [Example 345, 4-(7-amino-2-thieno[2,3-c]pyridin-3-yl-furo[2,3-c]pyridin-4-yl)-1-methyl-1H-pyrazole-3-carbonitrile] | > 10000 nM | –
Nc1ncc(-c2cnn(C3CCN(C(=O)CCC4CCCC4)CC3)c2)c2cc(-c3csc4cnccc34)oc12 [Example 335, 1-{4-[4-(7-Amino-2-thieno[2,3-c]pyridin-3-yl-furo[2,3-c]pyridin-4-yl)-pyrazol-1-yl]-piperidin-1-yl}-3-cyclopentyl-propan-1-one] | 1000 to 10000 nM | –
Nc1ncc(-c2cnn(C3CCNCC3)c2)c2cc(-c3cccc(Cl)c3Cl)oc12 [Example 4, 2-(2,3-dichlorophenyl)-4-[1-(piperidin-4-yl)-1H-pyrazol-4-yl]furo[2,3-c]pyridin-7-amine] | 1000 to 10000 nM | –
Cc1nn(C)c(C)c1-c1cnc(N)c2oc(-c3csc4cnccc34)cc12 [Example 294, 2-thieno[2,3-c]pyridin-3-yl-4-(1,3,5-trimethyl-1H-pyrazol-4-yl)-furo[2,3-c]pyridin-7-ylamine] | – | > 10000 nM
COC(=O)c1cc(-c2cnc(N)c3oc(-c4csc5cnccc45)cc23)cs1 [Example 378, 4-(7-amino-2-thieno[2,3-c]pyridin-3-yl-furo[2,3-c]pyridin-4-yl)-thiophene-2-carboxylic acid methyl ester] | > 10000 nM | –
